Assay results from patent US20120034193A1, “TREATMENT OF NEUROTROPHIC FACTOR MEDIATED DISORDERS” (priority 2009, published 2012).

Assays:
Test in all cases: Binding assay
Conditions in all cases: smilagenin 1 μM
[1] = biological target: 5-Hydroxytryptamine, 5-HT1A (Homo sapiens, UniProt P08908)
Outline: (§1)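 Known radioligand concentration, receptor homogenate, compound fixed at 1 μM. Read-out: specific binding after free-label removal, converted to percent inhibition relative to untreated binding.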

[2] = biological target: 5-Hydroxytryptamine, 5-HT3 (Homo sapiens, UniProt P46098)
Outline: as §1

Adrenergic α1B = Adrenergic α1B (Rattus norvegicus, UniProt P15823)
Outline: as §1

Adrenergic β1 = Adrenergic β1 (Homo sapiens, UniProt P08588)
Outline: as §1

Adrenergic β3 = Adrenergic β3 (Homo sapiens, UniProt P13945)
Outline: as §1

Adrenomedullin AM1 = Adrenomedullin AM1 (Homo sapiens, UniProt O60895+Q16602)
Outline: as §1

Anaphylatoxin C5a = Anaphylatoxin C5a (Homo sapiens, UniProt P21730)
Outline: as §1

Angiotensin AT2 = Angiotensin AT2 (Homo sapiens, UniProt P50052)
Outline: as §1

Bombesin BB1 = Bombesin BB1 (Homo sapiens, UniProt P28336)
Outline: as §1

Bradykinin B1 = Bradykinin B1 (Homo sapiens, UniProt P46663)
Outline: as §1

[3] = biological target: Calcitonin Gene-Related Peptide CGRP1 (Homo sapiens, UniProt O60894+Q16602)
Outline: as §1

Calcium Channel N-Type = Calcium Channel N-Type (Rattus norvegicus, UniProt Q02294)
Outline: as §1

Chemokine CCR1 = Chemokine CCR1 (Homo sapiens, UniProt P32246)
Outline: as §1

Chemokine CXCR1 (IL-8RB) = Chemokine CXCR1 (IL-8RB) (Homo sapiens, UniProt P25025)
Outline: as §1

Dopamine D4.2 = Dopamine D4.2 (Homo sapiens, UniProt P21917, DEL265-296)
Outline: as §1

Dopamine D5 = Dopamine D5 (Homo sapiens, UniProt P21918)
Outline: as §1

Endothelin ETA = Endothelin ETA (Homo sapiens, UniProt P25101)
Outline: as §1

[4] = biological target: T1, Epidermal Growth Factor (EGF) (Homo sapiens, UniProt P00533)
T1 construct: host or cells: tissue or cell homogenate (not specified)
Outline: as §1

[5] = biological target: T2, G Protein-Coupled Receptor GPR8 (Homo sapiens, UniProt P48146)
T2 construct: host or cells: tissue or cell homogenate (not specified)
Outline: as §1

Interleukin IL-2 = Interleukin IL-2 (Mus musculus, UniProt P01590)
Outline: as §1

Melanocortin MC4 = Melanocortin MC4 (Homo sapiens, UniProt P32245)
Outline: as §1

Melatonin MT1 = Melatonin MT1 (Homo sapiens, UniProt P48039)
Outline: as §1

Muscarinic M1 = biological target: T3, Muscarinic M1 (Homo sapiens, UniProt P11229)
T3 construct: host or cells: tissue or cell homogenate, not specified
Outline: as §1

Muscarinic M5 = biological target: T4, Muscarinic M5 (Homo sapiens, UniProt P08912)
T4 construct: host or cells: tissue or cell homogenate, not specified
Outline: as §1

[6] = biological target: N-Formyl Peptide Receptor-Like FPRL1 (Homo sapiens, UniProt P25090)
Outline: as §1

Neuropeptide Y Y1 = Neuropeptide Y Y1 (Homo sapiens, UniProt P25929)
Outline: as §1

Oestrogen (ERα) = biological target: T5, Oestrogen (ERα) (Homo sapiens, UniProt P03372)
T5 construct: host or cells: tissue or cell homogenate (not specified)
Outline: as §1

Potassium Channel [KATP] = tested on: Potassium Channel [KATP]
Outline: as §1

Progesterone PR-B = Progesterone PR-B (Homo sapiens, UniProt P06401)
Outline: as §1

Purinergic P2X = tested on: Purinergic P2X
Outline: as §1

Retanoid X Receptor RXRα = Retanoid X Receptor RXRα (Homo sapiens, UniProt P19793)
Outline: as §1

Somatostatin sst2 = Somatostatin sst2 (Homo sapiens, UniProt P30874)
Outline: as §1

Somatostatin sst3 = Somatostatin sst3 (Homo sapiens, UniProt P32745)
Outline: as §1

[7] = biological target: Transporter, Dopamine (DAT) (Homo sapiens, UniProt Q01959)
Outline: as §1

Vasopressin V1B = biological target: T6, Vasopressin V1B (Homo sapiens, UniProt P47901)
T6 construct: host or cells: tissue or cell homogenate, not specified
Outline: as §1

Vitamin D3 = biological target: T7, Vitamin D3 (Homo sapiens, UniProt P11473)
T7 construct: host or cells: tissue or cell homogenate, not specified
Outline: as §1

Chain of Somatostatin sst3 (P32745 whole entry): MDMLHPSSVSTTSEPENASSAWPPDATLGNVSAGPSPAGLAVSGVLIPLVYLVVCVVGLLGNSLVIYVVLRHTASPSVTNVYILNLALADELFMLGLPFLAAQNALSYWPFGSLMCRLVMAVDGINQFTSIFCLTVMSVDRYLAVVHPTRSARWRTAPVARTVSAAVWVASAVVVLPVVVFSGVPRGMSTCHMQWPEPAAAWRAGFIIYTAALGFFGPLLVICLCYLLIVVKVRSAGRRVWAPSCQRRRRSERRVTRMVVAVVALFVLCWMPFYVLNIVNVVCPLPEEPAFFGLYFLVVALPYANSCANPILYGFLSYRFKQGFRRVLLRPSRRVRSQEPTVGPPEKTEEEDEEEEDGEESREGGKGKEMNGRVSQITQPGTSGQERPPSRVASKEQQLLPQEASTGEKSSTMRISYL
T4 sequence (P08912 whole entry): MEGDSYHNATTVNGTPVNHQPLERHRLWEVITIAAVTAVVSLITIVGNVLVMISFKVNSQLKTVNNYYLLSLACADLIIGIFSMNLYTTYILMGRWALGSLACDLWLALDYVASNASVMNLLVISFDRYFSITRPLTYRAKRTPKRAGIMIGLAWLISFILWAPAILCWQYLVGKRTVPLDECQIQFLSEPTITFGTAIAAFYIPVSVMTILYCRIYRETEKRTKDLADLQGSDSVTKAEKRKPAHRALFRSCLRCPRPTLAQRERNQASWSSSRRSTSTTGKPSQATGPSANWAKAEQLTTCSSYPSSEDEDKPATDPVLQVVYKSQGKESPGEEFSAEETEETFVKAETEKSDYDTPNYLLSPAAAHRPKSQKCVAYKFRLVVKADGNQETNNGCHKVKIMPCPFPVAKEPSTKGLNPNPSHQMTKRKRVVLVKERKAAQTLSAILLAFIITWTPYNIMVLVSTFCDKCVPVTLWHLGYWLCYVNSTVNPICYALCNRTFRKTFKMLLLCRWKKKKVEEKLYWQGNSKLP
Chain of N-Formyl Peptide Receptor-Like FPRL1 (P25090 whole entry): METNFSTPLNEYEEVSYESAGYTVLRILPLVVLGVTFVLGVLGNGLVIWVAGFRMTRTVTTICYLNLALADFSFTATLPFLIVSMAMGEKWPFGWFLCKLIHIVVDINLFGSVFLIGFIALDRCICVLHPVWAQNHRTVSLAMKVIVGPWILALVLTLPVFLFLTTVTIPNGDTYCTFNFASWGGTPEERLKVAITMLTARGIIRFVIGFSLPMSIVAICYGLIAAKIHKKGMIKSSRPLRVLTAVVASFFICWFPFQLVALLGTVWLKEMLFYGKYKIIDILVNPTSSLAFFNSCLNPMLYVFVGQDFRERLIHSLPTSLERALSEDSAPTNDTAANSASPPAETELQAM
Chain of Adrenergic β3 (P13945 whole entry): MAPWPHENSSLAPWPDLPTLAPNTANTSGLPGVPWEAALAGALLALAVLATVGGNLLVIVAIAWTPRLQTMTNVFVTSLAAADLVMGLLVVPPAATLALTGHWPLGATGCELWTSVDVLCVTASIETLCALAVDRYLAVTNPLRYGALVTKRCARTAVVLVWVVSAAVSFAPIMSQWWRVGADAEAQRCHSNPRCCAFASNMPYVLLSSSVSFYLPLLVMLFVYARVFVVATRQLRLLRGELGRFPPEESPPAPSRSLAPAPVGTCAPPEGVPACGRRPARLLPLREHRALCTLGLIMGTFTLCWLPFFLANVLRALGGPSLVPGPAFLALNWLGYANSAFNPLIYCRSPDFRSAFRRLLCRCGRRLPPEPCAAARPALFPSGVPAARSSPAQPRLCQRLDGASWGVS
Chain of Endothelin ETA (P25101 21-427): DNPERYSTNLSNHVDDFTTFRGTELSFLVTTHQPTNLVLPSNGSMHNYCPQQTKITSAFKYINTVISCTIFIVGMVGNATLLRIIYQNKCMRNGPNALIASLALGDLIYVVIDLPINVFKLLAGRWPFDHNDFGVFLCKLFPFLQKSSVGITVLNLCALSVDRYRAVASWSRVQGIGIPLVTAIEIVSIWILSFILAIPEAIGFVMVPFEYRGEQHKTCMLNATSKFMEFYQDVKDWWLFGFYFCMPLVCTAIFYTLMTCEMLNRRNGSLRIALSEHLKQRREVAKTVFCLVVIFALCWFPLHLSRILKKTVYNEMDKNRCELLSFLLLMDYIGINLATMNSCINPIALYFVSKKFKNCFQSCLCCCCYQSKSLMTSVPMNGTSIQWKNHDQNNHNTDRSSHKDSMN
Chain of Transporter, Dopamine (DAT) (Q01959 whole entry): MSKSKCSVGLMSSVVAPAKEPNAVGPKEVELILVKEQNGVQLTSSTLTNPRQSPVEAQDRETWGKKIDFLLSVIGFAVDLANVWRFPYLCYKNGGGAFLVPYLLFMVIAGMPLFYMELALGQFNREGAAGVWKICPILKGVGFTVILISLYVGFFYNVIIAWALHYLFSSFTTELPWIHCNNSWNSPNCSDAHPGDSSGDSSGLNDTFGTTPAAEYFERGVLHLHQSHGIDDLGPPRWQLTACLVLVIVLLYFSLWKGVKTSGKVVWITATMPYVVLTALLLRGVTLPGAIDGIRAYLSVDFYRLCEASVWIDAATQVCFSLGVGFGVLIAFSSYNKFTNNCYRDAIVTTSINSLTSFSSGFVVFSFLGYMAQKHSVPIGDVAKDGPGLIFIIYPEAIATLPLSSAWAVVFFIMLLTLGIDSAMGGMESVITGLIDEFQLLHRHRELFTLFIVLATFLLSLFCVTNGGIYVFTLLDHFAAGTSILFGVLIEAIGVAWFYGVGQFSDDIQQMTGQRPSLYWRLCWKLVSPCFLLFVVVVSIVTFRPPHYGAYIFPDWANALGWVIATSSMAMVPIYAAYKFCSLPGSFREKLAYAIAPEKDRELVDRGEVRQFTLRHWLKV
Chain of Bombesin BB1 (P28336 whole entry): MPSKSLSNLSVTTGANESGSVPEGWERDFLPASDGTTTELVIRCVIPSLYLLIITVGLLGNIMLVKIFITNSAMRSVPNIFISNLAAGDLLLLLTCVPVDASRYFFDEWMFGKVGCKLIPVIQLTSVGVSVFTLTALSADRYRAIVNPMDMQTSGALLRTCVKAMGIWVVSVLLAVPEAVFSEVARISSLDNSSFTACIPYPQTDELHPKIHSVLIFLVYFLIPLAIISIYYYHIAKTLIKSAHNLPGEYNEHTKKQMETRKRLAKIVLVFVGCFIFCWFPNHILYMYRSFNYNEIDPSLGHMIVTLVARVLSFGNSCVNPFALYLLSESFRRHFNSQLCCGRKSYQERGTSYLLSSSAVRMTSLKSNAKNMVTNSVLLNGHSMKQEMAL
Chain of Somatostatin sst2 (P30874 whole entry): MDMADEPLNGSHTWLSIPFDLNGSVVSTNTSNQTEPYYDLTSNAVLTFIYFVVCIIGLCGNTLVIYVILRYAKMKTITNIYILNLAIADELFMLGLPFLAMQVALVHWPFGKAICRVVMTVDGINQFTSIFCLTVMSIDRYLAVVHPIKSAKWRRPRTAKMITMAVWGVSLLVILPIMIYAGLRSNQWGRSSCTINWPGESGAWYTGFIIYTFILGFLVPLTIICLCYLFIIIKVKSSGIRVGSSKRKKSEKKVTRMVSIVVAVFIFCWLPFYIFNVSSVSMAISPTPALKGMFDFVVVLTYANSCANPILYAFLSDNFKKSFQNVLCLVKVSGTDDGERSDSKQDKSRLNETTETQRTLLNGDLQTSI
Chain of Melanocortin MC4 (P32245 whole entry): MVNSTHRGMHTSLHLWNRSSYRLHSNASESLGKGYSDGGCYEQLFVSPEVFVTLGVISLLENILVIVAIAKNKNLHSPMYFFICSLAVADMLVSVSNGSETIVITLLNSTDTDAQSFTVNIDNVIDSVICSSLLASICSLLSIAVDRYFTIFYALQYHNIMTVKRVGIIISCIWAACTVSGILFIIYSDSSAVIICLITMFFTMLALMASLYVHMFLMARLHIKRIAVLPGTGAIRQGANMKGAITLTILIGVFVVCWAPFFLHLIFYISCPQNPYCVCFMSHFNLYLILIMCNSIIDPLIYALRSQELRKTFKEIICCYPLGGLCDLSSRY
Chain of Chemokine CXCR1 (IL-8RB) (P25025 whole entry): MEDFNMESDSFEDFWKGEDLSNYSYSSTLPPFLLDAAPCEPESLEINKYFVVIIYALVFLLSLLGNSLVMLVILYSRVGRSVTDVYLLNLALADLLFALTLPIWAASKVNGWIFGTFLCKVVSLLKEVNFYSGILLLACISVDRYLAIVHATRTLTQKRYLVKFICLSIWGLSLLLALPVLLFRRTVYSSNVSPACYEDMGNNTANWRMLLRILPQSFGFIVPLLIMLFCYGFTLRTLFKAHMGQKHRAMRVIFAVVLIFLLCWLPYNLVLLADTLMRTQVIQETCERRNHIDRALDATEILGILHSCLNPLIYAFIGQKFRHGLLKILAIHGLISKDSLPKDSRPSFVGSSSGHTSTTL
Chain of Anaphylatoxin C5a (P21730 whole entry): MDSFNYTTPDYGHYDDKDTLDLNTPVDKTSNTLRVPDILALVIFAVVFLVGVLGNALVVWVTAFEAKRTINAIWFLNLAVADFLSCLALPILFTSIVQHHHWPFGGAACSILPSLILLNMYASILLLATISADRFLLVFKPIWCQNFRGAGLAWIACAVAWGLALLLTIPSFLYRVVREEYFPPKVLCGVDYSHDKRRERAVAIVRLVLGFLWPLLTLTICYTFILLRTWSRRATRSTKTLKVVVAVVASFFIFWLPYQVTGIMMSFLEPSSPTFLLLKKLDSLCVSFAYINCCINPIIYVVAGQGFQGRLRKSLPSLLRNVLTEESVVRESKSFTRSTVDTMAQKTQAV
Chain of Dopamine D4.2 (P21917 with tags, fused parts or gaps DEL265-296): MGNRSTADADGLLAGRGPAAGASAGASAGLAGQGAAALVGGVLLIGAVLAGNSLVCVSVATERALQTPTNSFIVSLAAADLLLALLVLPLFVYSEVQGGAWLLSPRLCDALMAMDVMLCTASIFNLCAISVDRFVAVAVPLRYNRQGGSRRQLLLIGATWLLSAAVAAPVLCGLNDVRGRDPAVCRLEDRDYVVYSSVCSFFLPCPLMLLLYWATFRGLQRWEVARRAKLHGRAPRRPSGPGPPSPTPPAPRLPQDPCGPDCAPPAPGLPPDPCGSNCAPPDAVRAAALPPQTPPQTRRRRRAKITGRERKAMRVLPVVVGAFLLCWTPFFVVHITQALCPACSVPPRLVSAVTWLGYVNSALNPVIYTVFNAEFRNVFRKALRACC

For `C[C@@H]1CC[C@@]2(OC1)O[C@H]1C[C@H]3[C@@H]4CC[C@@H]5C[C@@H](O)CC[C@]5(C)[C@H]4CC[C@]3(C)[C@H]1[C@@H]2C` [Smilagenin, smilagenin], the “Effect (%)” value [1] was “NS (NS = No significant response. Significance was taken as ≧30% stimulation or inhibition)”, the “Effect (%)” value [2] was “NS (NS = No significant response. Significance was taken as ≧30% stimulation or inhibition)” and the “Effect (%)” value (Adrenergic α1B) was “NS (NS = No significant response. Significance was taken as ≧30% stimulation or inhibition)”. The “Effect (%)” value (Adrenergic β1) was “NS (NS = No significant response. Significance was taken as ≧30% stimulation or inhibition)”, the “Effect (%)” value (Adrenergic β3) was “NS (NS = No significant response. Significance was taken as ≧30% stimulation or inhibition)” and the “Effect (%)” value (Adrenomedullin AM1) was “NS (NS = No significant response. Significance was taken as ≧30% stimulation or inhibition)”. For the same molecule, the “Effect (%)” value (Anaphylatoxin C5a) was “NS (NS = No significant response. Significance was taken as ≧30% stimulation or inhibition)”, the “Effect (%)” value (Angiotensin AT2) was “NS (NS = No significant response. Significance was taken as ≧30% stimulation or inhibition)” and the “Effect (%)” value (Bombesin BB1) was “NS (NS = No significant response. Significance was taken as ≧30% stimulation or inhibition)”. The “Effect (%)” value (Bradykinin B1) was “NS (NS = No significant response. Significance was taken as ≧30% stimulation or inhibition)”, the “Effect (%)” value [3] was “NS (NS = No significant response. Significance was taken as ≧30% stimulation or inhibition)” and the “Effect (%)” value (Calcium Channel N-Type) was “NS (NS = No significant response. Significance was taken as ≧30% stimulation or inhibition)”. For the same molecule, the “Effect (%)” value (Chemokine CCR1) was “NS (NS = No significant response. Significance was taken as ≧30% stimulation or inhibition)”, the “Effect (%)” value (Chemokine CXCR1 (IL-8RB)) was “NS (NS = No significant response. Significance was taken as ≧30% stimulation or inhibition)” and the “Effect (%)” value (Dopamine D4.2) was “NS (NS = No significant response. Significance was taken as ≧30% stimulation or inhibition)”. For the same molecule, the “Effect (%)” value (Dopamine D5) was “NS (NS = No significant response. Significance was taken as ≧30% stimulation or inhibition)”, the “Effect (%)” value (Endothelin ETA) was “NS (NS = No significant response. Significance was taken as ≧30% stimulation or inhibition)” and the “Effect (%)” value [4] was “NS (NS = No significant response. Significance was taken as ≧30% stimulation or inhibition)”. For the same molecule, the “Effect (%)” value [5] was “NS (NS = No significant response. Significance was taken as ≧30% stimulation or inhibition)”, the “Effect (%)” value (Interleukin IL-2) was “NS (NS = No significant response. Significance was taken as ≧30% stimulation or inhibition)” and the “Effect (%)” value (Melanocortin MC4) was “NS (NS = No significant response. Significance was taken as ≧30% stimulation or inhibition)”. The “Effect (%)” value (Melatonin MT1) was “NS (NS = No significant response. Significance was taken as ≧30% stimulation or inhibition)”, the “Effect (%)” value (Muscarinic M1) was “NS (NS = No significant response. Significance was taken as ≧30% stimulation or inhibition)” and the “Effect (%)” value (Muscarinic M5) was “NS (NS = No significant response. Significance was taken as ≧30% stimulation or inhibition)”. The “Effect (%)” value [6] was “NS (NS = No significant response. Significance was taken as ≧30% stimulation or inhibition)”, the “Effect (%)” value (Neuropeptide Y Y1) was “NS (NS = No significant response. Significance was taken as ≧30% stimulation or inhibition)” and the “Effect (%)” value (Oestrogen (ERα)) was “NS (NS = No significant response. Significance was taken as ≧30% stimulation or inhibition)”. For the same molecule, the “Effect (%)” value (Potassium Channel [KATP]) was “NS (NS = No significant response. Significance was taken as ≧30% stimulation or inhibition)”, the “Effect (%)” value (Progesterone PR-B) was “NS (NS = No significant response. Significance was taken as ≧30% stimulation or inhibition)” and the “Effect (%)” value (Purinergic P2X) was “NS (NS = No significant response. Significance was taken as ≧30% stimulation or inhibition)”. The “Effect (%)” value (Retanoid X Receptor RXRα) was “NS (NS = No significant response. Significance was taken as ≧30% stimulation or inhibition)”, the “Effect (%)” value (Somatostatin sst2) was “NS (NS = No significant response. Significance was taken as ≧30% stimulation or inhibition)” and the “Effect (%)” value (Somatostatin sst3) was “NS (NS = No significant response. Significance was taken as ≧30% stimulation or inhibition)”. The “Effect (%)” value [7] was “NS (NS = No significant response. Significance was taken as ≧30% stimulation or inhibition)”, the “Effect (%)” value (Vasopressin V1B) was “NS (NS = No significant response. Significance was taken as ≧30% stimulation or inhibition)” and the “Effect (%)” value (Vitamin D3) was “NS (NS = No significant response. Significance was taken as ≧30% stimulation or inhibition)”.
